Reference: patent US20070254323A1, “Malachite green derivatives for immunoassay reagents to detect malachite green” (priority 2006, published 2007)

How the values were obtained:
[1] = system: anti-Malachite Green antibodies; experiment: competitive ELISA: sensitivity and specificity of the produced anti-Malachite Green antibodies; type: binding, rabbit; conditions: for level detectable by the antibodies: competitive inhibition ELISA; for Cross-reactivities / Sensitivity: competitive ELISA; for Cross-reactivities: Malachite Green = 100; for Sensitivity: produced anti-Malachite Green antibodies
Protocol: In accordance with this embodiment, the diluted antiserum is added to a Malachite Green Chromatic conjugate-coated solid substrate such as the wells of an assay plate, together with a range of concentrations of free Malachite Green Chromatic as a competitor. Following incubation and washing, bound antibody in the wells is determined. Percent inhibition may be calculated as (1−B/B0)×100 where B is the optical density (OD) of a well with a competitor and B0 is the mean OD of the wells without competitor (control). […] However, for even greater accuracy, the affinity may be alternatively measured at 50% inhibition (IC50). […] Detection of bound antibody may be accomplished by addition of enzyme-labeled anti-immunoglobulin antibodies followed by enzyme substrate. Horseradish peroxidase and its substrate TMB are preferred enzyme/substrate labels. However, it is understood that other enzyme/substrate labels or non-enzyme labels such as radiolabels or chromophores may also be used.
Two female New Zealand White Rabbits, 8 weeks old, were initially immunized by intraperitoneal injection with 0.2 mg of Malachite Green-KLH conjugate as prepared in EXAMPLE 1 mixed with complete Freund's adjuvant. Five booster immunizations were administered at 15-day intervals using the antigen. Blood was collected 7 to 10 days after the last booster immunization in order to check for antibody titers. Titers were checked using both indirect ELISA and competitive ELISA that employed Malachite Green Chromatic-BSA conjugate as the coating antigen and free Malachite Green Chromatic as competitor. […] A typical competitive ELISA procedure is described below: • (1). In the Malachite Green Chromatic-BSA coated 96-well plate, add 50 μL of negative control and each Malachite Green Chromatic standard (1, 5, 10, 25, 50, 100 ng/mL) in duplicate into different wells; add 50 μL of each sample in duplicate into different sample wells. • (2). Add 100 μL of diluted Malachite Green Antibody #1 and mix well by gently tapping the edge of the plate for 10 seconds. • (3). Incubate the plate for 30 min at 37° C. or 1 hr at room temperature (15-25° C.). • (4). Wash the plate 3 times with 250 μL 1×PBS. After the last wash, gently slap the plate dry on paper towels. • (5). Add 150 μL of HRP Goat-against Rabbit antibody conjugate solution. Incubate the plate for 30 min at 37° C. or 1 hr at room temperature (15-25° C.). • (6). Wash the plate 3 times with 250 μL 1×PBS. After the last wash, gently slap the plate dry on paper towels. • (7). Add 100 μL of TMB substrate. • (8). Time the reaction immediately after adding the substrate; mix the solution by gently tapping the edge of the plate. • (9). After incubating for 15 min at room temperature, add 100 μL of 1 M H2SO4 to stop the enzyme reaction before reading the plate at 450 nm.

[2] = system: Leukomalachite Green antibody; conditions: Randox antibody raised against Leucomalachite Green immunogen; cited from earlier work
[3] = in fish; cited from earlier work

With CN(C)c1ccc(C(O)(c2ccccc2)c2ccc(N(C)C)cc2)cc1 [Carbinol] the “level detectable by the antibodies” value [1] was 0.5 ng/mL.

With O=C(N[C@H](CO)[C@H](O)c1ccc([N+](=O)[O-])cc1)C(Cl)Cl [Chloramphenicol] the Cross-reactivities [1] was under 0.01% and the Sensitivity [1] was >10,000 ng/ml.

For CC(C)(C)NCC(O)c1cc(Cl)c(N)c(Cl)c1 (centres unmarked) [Clenbuterol], the Cross-reactivities [1] was under 0.01% and the Sensitivity [1] was >10,000 ng/ml.

With CN(C)c1ccc(C(=C2C=CC(=[N+](C)C)C=C2)c2ccc(N(C)C)cc2)cc1 [Crystal Violet] the Cross-reactivities [1] was 42% and the Sensitivity [1] was 10 ng/mL.

In the case of O=C1OCCN1/N=C/c1ccc([N+](=O)[O-])o1 [Furazolidone], the Sensitivity [1] is reported as >10,000 ng/ml.

CN(C)c1ccc(C(c2ccc(N(C)C)cc2)c2ccc(N(C)C)cc2)cc1 [Leucocrystal Violet] showed a Cross-reactivities [1] of under 0.01% and a Sensitivity [1] of 5000 ng/mL.

In the case of CN(C)c1ccc(C(c2ccccc2)c2ccc(N(C)C)cc2)cc1 [Leucomalachite Green], the Cross-reactivities [1] is reported as 1%, the Sensitivity [1] is reported as 500 ng/mL and the “level detectable by the antibodies” value [1] is reported as 0.5 ng/mL.

In the case of CN(C)c1ccc(C(=C2C=CC(=[N+](C)C)C=C2)c2ccccc2)cc1 [Malachite Green], the Cross-reactivities [1] is reported as 100%, the Sensitivity [1] is reported as 1 ng/mL and the test sensitivity ([1]; produced antibodies, Table 1 summary) is reported as 1 ppb. The cross reactivity [2] was 26.8% and the “converted into Leucomalachite Green” value [3] was about 80%.

In the case of Cc1cc(C)nc(NS(=O)(=O)c2ccc(N)cc2)n1 [Sulfumethazine], the Cross-reactivities [1] is reported as under 0.01% and the Sensitivity [1] is reported as >10,000 ng/ml.
